Reference: ChEMBL document CHEMBL4507301 (2021)

Legend:
[1] = target: Serine/threonine-protein kinase RIO1 (Homo sapiens) (UniProt Q9BRS2); details: Compound concentration 1000.0 nM
[2] = target: Serine/threonine-protein kinase 36 (Homo sapiens) (UniProt Q9NRP7); details: Compound concentration 1000.0 nM
[3] = target: Tyrosine-protein kinase Fyn (Homo sapiens) (UniProt P06241); details: Compound concentration 1000.0 nM
[4] = target: Fibroblast growth factor receptor 1 (Homo sapiens) (UniProt P11362); details: Compound concentration 1000.0 nM
[5] = target: Serine/threonine-protein kinase haspin (Homo sapiens) (UniProt Q8TF76); details: Compound concentration 1000.0 nM
[6] = target: Serine/threonine-protein kinase 32A (Homo sapiens) (UniProt Q8WU08); details: Compound concentration 1000.0 nM
[7] = test system: Tyrosine-protein kinase ABL1 (Homo sapiens), P00519 [M351T]; details: Compound concentration 1000.0 nM
[8] = target: Cytoplasmic tyrosine-protein kinase BMX (Homo sapiens) (UniProt P51813); details: Compound concentration 1000.0 nM
[9] = target: Ribosomal protein S6 kinase alpha-6 (Homo sapiens) (UniProt Q9UK32); details: Compound concentration 1000.0 nM
[10] = test system: Mast/stem cell growth factor receptor Kit (Homo sapiens), P10721 [V559D]; details: Compound concentration 1000.0 nM
[11] = target: Fibroblast growth factor receptor 3 (Homo sapiens) (UniProt P22607); details: Compound concentration 1000.0 nM
[12] = target: 1-phosphatidylinositol 3-phosphate 5-kinase (Homo sapiens) (UniProt Q9Y2I7); details: Compound concentration 1000.0 nM
[13] = target: Tyrosine-protein kinase JAK1 (Homo sapiens) (UniProt P23458); details: Compound concentration 1000.0 nM
[14] = target: Receptor-interacting serine/threonine-protein kinase 2 (Homo sapiens) (UniProt O43353); details: Compound concentration 1000.0 nM
[15] = target: Serine/threonine-protein kinase PAK 5 (Homo sapiens) (UniProt Q9P286); details: Compound concentration 1000.0 nM
[16] = target: Mitogen-activated protein kinase kinase kinase 19 (Homo sapiens) (UniProt Q56UN5); details: Compound concentration 1000.0 nM
[17] = target: ALK tyrosine kinase receptor (Homo sapiens) (UniProt Q9UM73); details: Compound concentration 1000.0 nM
[18] = target: Ribosomal protein S6 kinase alpha-2 (Homo sapiens) (UniProt Q15349); details: Compound concentration 1000.0 nM
Chain of Ribosomal protein S6 kinase alpha-2 (Homo sapiens) (Q15349 whole entry, canonical isoform): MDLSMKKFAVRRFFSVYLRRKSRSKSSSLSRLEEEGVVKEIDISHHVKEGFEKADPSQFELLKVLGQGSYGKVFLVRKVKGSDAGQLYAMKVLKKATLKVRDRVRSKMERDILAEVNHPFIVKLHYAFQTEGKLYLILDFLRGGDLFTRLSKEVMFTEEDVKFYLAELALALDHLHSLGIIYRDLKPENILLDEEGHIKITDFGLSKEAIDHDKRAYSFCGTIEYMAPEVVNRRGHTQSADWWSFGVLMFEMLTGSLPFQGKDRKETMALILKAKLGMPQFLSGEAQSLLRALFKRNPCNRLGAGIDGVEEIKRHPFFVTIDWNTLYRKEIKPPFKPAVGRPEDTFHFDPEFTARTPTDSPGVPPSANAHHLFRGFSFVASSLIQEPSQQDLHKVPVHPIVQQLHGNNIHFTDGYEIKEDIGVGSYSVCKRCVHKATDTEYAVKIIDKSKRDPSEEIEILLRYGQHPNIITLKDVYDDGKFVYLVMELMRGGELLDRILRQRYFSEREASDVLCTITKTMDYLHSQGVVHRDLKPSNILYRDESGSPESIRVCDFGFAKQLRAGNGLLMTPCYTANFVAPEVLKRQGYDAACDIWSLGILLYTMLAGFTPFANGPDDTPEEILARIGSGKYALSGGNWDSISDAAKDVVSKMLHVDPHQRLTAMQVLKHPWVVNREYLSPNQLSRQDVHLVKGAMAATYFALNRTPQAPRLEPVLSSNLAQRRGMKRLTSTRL

[19] = test system: Phosphatidylinositol 4,5-bisphosphate 3-kinase catalytic subunit alpha isoform (Homo sapiens), P42336 [Q546K]; details: Compound concentration 1000.0 nM
Chain of Phosphatidylinositol 4,5-bisphosphate 3-kinase catalytic subunit alpha isoform (Homo sapiens), P42336 [Q546K] (P42336 whole entry Q546K, canonical isoform): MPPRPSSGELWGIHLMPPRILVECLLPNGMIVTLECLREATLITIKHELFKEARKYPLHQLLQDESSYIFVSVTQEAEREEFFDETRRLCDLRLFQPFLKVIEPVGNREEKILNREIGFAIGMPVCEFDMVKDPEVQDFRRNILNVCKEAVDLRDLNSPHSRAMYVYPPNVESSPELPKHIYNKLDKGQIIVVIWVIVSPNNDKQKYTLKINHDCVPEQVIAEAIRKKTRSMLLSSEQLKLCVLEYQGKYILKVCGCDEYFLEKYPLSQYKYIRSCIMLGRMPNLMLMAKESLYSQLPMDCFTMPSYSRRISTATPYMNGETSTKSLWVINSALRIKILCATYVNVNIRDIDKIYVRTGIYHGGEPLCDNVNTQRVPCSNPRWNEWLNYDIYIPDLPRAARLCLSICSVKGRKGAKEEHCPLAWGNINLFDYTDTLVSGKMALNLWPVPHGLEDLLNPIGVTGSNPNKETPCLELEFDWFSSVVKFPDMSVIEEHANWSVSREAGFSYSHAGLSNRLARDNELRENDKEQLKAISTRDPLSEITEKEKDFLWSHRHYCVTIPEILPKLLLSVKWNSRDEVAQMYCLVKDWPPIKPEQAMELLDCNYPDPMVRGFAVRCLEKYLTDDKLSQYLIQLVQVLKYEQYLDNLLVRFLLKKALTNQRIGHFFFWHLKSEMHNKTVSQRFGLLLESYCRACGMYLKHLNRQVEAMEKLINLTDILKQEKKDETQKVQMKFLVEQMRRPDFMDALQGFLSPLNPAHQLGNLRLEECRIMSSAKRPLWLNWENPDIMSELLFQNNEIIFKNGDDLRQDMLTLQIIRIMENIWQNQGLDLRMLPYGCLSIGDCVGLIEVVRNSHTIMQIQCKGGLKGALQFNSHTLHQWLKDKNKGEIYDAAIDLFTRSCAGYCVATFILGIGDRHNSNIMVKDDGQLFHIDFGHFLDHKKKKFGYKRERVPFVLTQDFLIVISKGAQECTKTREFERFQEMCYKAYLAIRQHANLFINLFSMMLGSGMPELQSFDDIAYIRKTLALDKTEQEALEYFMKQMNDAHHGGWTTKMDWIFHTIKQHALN

[20] = target: 5-hydroxytryptamine receptor 1E (Homo sapiens) (UniProt P28566); details: Compound concentration 10.0 uM
[21] = target: Beta-2 adrenergic receptor (Homo sapiens) (UniProt P07550); details: Compound concentration 10.0 uM
[22] = target: G protein-coupled receptor kinase 4 (Homo sapiens) (UniProt P32298); details: Compound concentration 1000.0 nM
[23] = target: Sigma intracellular receptor 2 (Homo sapiens) (UniProt Q5BJF2); details: Compound concentration 10.0 uM
Chain of Sigma intracellular receptor 2 (Homo sapiens) (Q5BJF2 whole entry): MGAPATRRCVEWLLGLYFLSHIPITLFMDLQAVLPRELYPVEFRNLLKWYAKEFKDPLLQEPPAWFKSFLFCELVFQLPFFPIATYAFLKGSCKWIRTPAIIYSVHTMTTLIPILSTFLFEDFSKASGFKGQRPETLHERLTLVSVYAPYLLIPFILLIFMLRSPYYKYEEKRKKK

[24] = target: BDNF/NT-3 growth factors receptor (Homo sapiens) (UniProt Q16620); details: Compound concentration 1000.0 nM
Chain of BDNF/NT-3 growth factors receptor (Homo sapiens) (Q16620 32-822 limits assumed): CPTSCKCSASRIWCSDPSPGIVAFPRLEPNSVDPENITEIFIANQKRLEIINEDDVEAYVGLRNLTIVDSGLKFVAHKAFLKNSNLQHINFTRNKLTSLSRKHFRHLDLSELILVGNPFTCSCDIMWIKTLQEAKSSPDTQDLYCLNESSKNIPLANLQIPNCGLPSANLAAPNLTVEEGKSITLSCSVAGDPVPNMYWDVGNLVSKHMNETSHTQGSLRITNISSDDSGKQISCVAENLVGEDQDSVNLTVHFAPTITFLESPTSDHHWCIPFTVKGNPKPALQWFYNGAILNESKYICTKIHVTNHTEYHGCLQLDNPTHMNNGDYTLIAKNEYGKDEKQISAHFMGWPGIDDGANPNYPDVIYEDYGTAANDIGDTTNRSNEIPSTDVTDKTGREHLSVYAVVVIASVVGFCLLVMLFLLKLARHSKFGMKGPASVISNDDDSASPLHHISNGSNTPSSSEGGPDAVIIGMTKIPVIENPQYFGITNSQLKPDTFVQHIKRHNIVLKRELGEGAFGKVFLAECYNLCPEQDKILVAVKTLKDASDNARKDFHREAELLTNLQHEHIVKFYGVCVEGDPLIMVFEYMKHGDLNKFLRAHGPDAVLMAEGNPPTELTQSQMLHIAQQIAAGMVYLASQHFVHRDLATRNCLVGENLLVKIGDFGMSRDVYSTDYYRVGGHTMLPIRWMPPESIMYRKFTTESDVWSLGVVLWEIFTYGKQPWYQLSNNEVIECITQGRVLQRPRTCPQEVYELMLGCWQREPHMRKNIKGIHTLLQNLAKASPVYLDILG

[25] = target: Serine/threonine-protein kinase ULK1 (Homo sapiens) (UniProt O75385); details: Compound concentration 1000.0 nM
[26] = target: Serine/threonine-protein kinase/endoribonuclease IRE1 (Homo sapiens) (UniProt O75460); details: Compound concentration 1000.0 nM
[27] = target: Cyclin-dependent kinase 19 (Homo sapiens) (UniProt Q9BWU1); details: Compound concentration 1000.0 nM
[28] = target: Vascular endothelial growth factor receptor 2 (Homo sapiens) (UniProt P35968); details: Compound concentration 1000.0 nM
Chain of Vascular endothelial growth factor receptor 2 (Homo sapiens) (P35968 whole entry): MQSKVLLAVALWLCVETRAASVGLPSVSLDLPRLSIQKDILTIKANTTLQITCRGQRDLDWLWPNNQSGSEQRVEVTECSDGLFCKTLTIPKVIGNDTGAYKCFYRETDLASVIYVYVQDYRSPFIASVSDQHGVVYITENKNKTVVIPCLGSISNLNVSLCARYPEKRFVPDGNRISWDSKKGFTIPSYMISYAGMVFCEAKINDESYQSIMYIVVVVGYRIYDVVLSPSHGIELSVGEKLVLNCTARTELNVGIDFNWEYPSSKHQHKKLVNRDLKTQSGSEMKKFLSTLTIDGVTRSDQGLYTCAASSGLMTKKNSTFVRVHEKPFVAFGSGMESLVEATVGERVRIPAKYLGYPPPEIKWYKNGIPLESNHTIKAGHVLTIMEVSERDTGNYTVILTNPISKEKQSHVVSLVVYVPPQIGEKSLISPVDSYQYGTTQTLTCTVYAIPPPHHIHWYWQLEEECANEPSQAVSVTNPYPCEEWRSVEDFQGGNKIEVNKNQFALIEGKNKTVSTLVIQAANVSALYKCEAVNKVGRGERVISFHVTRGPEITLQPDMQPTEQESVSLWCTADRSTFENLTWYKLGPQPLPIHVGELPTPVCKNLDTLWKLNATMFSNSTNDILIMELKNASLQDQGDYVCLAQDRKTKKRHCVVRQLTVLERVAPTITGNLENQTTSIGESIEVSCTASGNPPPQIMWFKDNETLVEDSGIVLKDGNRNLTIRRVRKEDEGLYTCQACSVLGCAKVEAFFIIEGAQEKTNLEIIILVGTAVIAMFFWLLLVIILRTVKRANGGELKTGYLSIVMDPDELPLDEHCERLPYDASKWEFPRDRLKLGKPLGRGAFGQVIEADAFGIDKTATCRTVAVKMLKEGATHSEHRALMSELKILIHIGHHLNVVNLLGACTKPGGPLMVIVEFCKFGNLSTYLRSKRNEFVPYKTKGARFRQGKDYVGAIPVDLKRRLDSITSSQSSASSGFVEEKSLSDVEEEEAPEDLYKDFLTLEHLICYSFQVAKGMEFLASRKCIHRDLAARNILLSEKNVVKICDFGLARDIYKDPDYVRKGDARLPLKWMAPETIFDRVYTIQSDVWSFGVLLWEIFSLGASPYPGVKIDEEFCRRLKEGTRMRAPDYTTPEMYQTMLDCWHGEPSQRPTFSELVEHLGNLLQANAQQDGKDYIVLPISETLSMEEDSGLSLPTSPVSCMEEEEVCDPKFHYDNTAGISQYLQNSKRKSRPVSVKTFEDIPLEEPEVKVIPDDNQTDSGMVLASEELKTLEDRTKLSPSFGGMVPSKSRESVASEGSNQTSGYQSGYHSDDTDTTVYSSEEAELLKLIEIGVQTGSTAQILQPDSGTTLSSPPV

[29] = target: Activin receptor type-2B (Homo sapiens) (UniProt Q13705); details: Compound concentration 1000.0 nM
[30] = target: Serine/threonine-protein kinase B-raf (Homo sapiens) (UniProt P15056); details: Compound concentration 1000.0 nM
[31] = target: Maternal embryonic leucine zipper kinase (Homo sapiens) (UniProt Q14680); details: Compound concentration 1000.0 nM
[32] = target: Calcium/calmodulin-dependent protein kinase type 1G (Homo sapiens) (UniProt Q96NX5); details: Compound concentration 1000.0 nM
[33] = test system: Phosphatidylinositol 4,5-bisphosphate 3-kinase catalytic subunit alpha isoform (Homo sapiens), P42336 [E542K]; details: Compound concentration 1000.0 nM
[34] = target: Protein-tyrosine kinase 2-beta (Homo sapiens) (UniProt Q14289); details: Compound concentration 1000.0 nM
[35] = target: Serine/threonine-protein kinase NLK (Homo sapiens) (UniProt Q9UBE8); details: Compound concentration 1000.0 nM
[36] = target: Serine/threonine-protein kinase DCLK2 (Homo sapiens) (UniProt Q8N568); details: Compound concentration 1000.0 nM
[37] = target: Ribosomal protein S6 kinase beta-1 (Homo sapiens) (UniProt P23443); details: Compound concentration 1000.0 nM
[38] = target: Serine/threonine-protein kinase ICK (Homo sapiens) (UniProt Q9UPZ9); details: Compound concentration 1000.0 nM
[39] = test system: Receptor-type tyrosine-protein kinase FLT3 (Homo sapiens), P36888 [K663Q]; details: Compound concentration 1000.0 nM
[40] = target: Phosphatidylinositol 3-kinase catalytic subunit type 3 (Homo sapiens) (UniProt Q8NEB9); details: Compound concentration 1000.0 nM
[41] = test system: Tyrosine-protein kinase ABL1 (Homo sapiens), P00519 [E255K]; details: Compound concentration 1000.0 nM
[42] = test system: Receptor-type tyrosine-protein kinase FLT3 (Homo sapiens), P36888 [D835H]; details: Compound concentration 1000.0 nM
[43] = test system: Mast/stem cell growth factor receptor Kit (Homo sapiens), P10721 [V559D,V654A]; details: Compound concentration 1000.0 nM
Chain of Mast/stem cell growth factor receptor Kit (Homo sapiens), P10721 [V559D,V654A] (P10721 whole entry V559D/V654A): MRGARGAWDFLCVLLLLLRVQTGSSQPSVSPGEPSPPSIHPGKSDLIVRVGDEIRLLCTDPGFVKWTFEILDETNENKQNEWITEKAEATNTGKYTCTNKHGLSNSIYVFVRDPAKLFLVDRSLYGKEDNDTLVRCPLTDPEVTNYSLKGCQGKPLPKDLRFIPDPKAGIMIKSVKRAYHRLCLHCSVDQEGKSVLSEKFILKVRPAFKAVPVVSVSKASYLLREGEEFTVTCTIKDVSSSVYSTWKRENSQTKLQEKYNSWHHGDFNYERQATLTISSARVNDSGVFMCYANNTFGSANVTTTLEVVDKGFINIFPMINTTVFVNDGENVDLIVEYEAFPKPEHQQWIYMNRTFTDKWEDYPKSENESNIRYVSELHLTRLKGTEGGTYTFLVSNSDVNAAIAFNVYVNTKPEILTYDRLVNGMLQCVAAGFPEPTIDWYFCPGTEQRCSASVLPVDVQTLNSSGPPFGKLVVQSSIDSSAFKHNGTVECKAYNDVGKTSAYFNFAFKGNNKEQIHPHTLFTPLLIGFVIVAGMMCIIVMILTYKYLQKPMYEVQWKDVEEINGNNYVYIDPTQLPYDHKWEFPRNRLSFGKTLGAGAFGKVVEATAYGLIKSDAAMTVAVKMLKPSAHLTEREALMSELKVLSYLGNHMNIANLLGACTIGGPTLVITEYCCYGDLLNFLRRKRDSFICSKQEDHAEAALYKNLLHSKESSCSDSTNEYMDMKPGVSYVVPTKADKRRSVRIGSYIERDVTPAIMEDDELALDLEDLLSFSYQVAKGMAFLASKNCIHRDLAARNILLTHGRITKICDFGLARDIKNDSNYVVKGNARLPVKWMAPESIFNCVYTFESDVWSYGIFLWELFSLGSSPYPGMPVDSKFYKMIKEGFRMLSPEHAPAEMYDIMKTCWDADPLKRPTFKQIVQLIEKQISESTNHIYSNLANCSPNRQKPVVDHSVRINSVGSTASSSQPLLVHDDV

[44] = target: Cyclin-dependent kinase 8 (Homo sapiens) (UniProt P49336); details: Compound concentration 1000.0 nM
[45] = target: Myosin-IIIb (Homo sapiens) (UniProt Q8WXR4); details: Compound concentration 1000.0 nM

SMILES: C[C@@H](c1cccc(C#N)c1)n1cc(Cl)cc(C(N)=O)c1=N [(S)-9s]
- residual activity [1]: 86%
- residual activity [2]: 94%
- residual activity [3]: 65%
- residual activity [4]: 91%
- residual activity [5]: 100%
- residual activity [6]: 100%
- residual activity [7]: 0%
- residual activity [8]: 95%
- residual activity [9]: 100%
- residual activity [10]: 93%
- residual activity [11]: 100%
- residual activity [12]: 100%
- residual activity [13]: 94%
- residual activity [14]: 88%
- residual activity [15]: 97%
- residual activity [16]: 94%
- residual activity [17]: 83%
- residual activity [18]: 93%
- residual activity [19]: 100%
- inhibition [20]: -1.72%
- inhibition [21]: 13.8%
- residual activity [22]: 99%
- inhibition [23]: 20.7%
- residual activity [24]: 100%
- residual activity [25]: 72%
- residual activity [26]: 76%
- residual activity [27]: 100%
- residual activity [28]: 73%
- residual activity [29]: 100%
- residual activity [30]: 96%
- residual activity [31]: 78%
- residual activity [32]: 100%
- residual activity [33]: 89%
- residual activity [34]: 87%
- residual activity [35]: 91%
- residual activity [36]: 90%
- residual activity [37]: 100%
- residual activity [38]: 81%
- residual activity [39]: 92%
- residual activity [40]: 97%
- residual activity [41]: 82%
- residual activity [42]: 81%
- residual activity [43]: 99%
- residual activity [44]: 92%
- residual activity [45]: 100%

SMILES: C[C@H](c1cccc(C#N)c1)n1cc(Cl)cc(C(N)=O)c1=N [(R)-9s]
- residual activity [1]: 100%
- residual activity [2]: 75%
- residual activity [3]: 42%
- residual activity [4]: 95%
- residual activity [5]: 91%
- residual activity [6]: 100%
- residual activity [7]: 100%
- residual activity [8]: 77%
- residual activity [9]: 100%
- residual activity [10]: 83%
- residual activity [11]: 88%
- residual activity [12]: 91%
- residual activity [13]: 57%
- residual activity [14]: 66%
- residual activity [15]: 100%
- residual activity [16]: 76%
- residual activity [17]: 79%
- residual activity [18]: 97%
- residual activity [19]: 100%
- inhibition [20]: -3.17%
- inhibition [21]: 18.6%
- residual activity [22]: 100%
- inhibition [23]: 53.6%
- residual activity [24]: 100%
- residual activity [25]: 78%
- residual activity [26]: 69%
- residual activity [27]: 89%
- residual activity [28]: 88%
- residual activity [29]: 100%
- residual activity [30]: 100%
- residual activity [31]: 74%
- residual activity [32]: 100%
- residual activity [33]: 77%
- residual activity [34]: 100%
- residual activity [35]: 44%
- residual activity [36]: 88%
- residual activity [37]: 100%
- residual activity [38]: 98%
- residual activity [39]: 100%
- residual activity [40]: 78%
- residual activity [41]: 87%
- residual activity [42]: 80%
- residual activity [43]: 96%
- residual activity [44]: 100%
- residual activity [45]: 92%
